Data as given in patent publication US7759367B2, “Pharmaceutical compositions and their uses” (Eisai R&D Management Co., Ltd., priority 2001, dated 2010).

Columns and labels:
male mice of ddy strain = assay: Anticonvulsant action induced by AMPA (Test Example 2); assay type: in vivo; settings: 25 mg/kg orally, AMPA 2 nmole/5 μl/minute/mouse into lateral ventricle 30 minutes or 1 hour after dosing
Procedure: A test compound was suspended in a 0.5% methyl cellulose solution or in sesame oil and was orally administered (25 mg/kg) to male mice of ddy strain. After 30 minutes or 1 hour from the oral administration, AMPA was continuously injected (2 nmole/5 μl/minute/mouse) into lateral ventricle to induce the convulsions. The effect was judged by a time-extending action until the convulsion takes place by a continuous injection of AMPA.

AMPA receptor = settings: primary culture of rat embryo cerebral cortex nerve cells; Fura2-AM; 2 μM AMPA; 1 μM MK-801;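 note: neurons cultured at least 8 to 10 days atop an astrocyte layer in 96-well plates, calcium entry read as the change in Fura2 fluorescence ratio at 340/380 nm excitation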

Question: Which “Anticonvulsant action (time-extending action until convulsion by continuous AMPA injection)” value (“Anticonvulsant action” for short) (male mice of ddy strain) does the source give for O=c1c(-c2cccnc2Cl)cc(-c2ccccn2)cn1-c1ccccc1 [Example 4, 3-(2-Chloro-3-pyridyl)-5-(2-pyridyl)-1-phenyl-1,2-dihydropyridin-2-one] here?
Answer: significant anticonvulsant action

Question: How did the “Anticonvulsant action” value (male mice of ddy strain) turn out when COc1ccccc1-n1cc(-c2ccccn2)cc(-c2ccccc2C#N)c1=O [Example 126, 3-(2-Cyanophenyl)-5-(2-pyridyl)-1-(2-methoxyphenyl)-1,2-dihydropyridin-2-one] was run?
Answer: significant anticonvulsant action

Question: For N#Cc1ccccc1-c1cc(-c2cnccn2)cn(-c2ccccc2)c1=O [Example 199, 3-(2-Cyanophenyl)-1-phenyl-5-(2-pyrazinyl)-1,2-dihydropyridin-2-one], which “Anticonvulsant action” value (male mice of ddy strain) is on record?
Answer: significant anticonvulsant action

Question: N#Cc1ccccc1-c1cc(-c2ccccn2)cn(-c2cccc(N)c2)c1=O [Example 9, 3-(2-Cyanophenyl)-5-(2-pyridyl)-1-(3-aminophenyl)-1,2-dihydropyridin-2-one] was tested. Which “Anticonvulsant action” value (male mice of ddy strain) did it give?
Answer: significant anticonvulsant action

Question: And the IC50 (AMPA receptor)?
Answer: 30 nM

Question: With N#Cc1ccccc1-c1cc(-c2cccc(N)n2)cn(-c2ccccc2)c1=O [Example 298, 5-(2-Aminopyridin-6-yl)-3-(2-cyanophenyl)-1-phenyl-1,2-dihydropyridin-2-one] as the compound, how does the “Anticonvulsant action” value (male mice of ddy strain) read?
Answer: significant anticonvulsant action

Question: N#Cc1sccc1-c1cc(-c2ccccn2)cn(-c2cccnc2)c1=O [Example 137, 3-(2-Cyanothiophen-3-yl)-5-(2-pyridyl)-1-(3-pyridyl)-1,2-dihydropyridin-2-one] was tested. Which “Anticonvulsant action” value (male mice of ddy strain) did it give?
Answer: significant anticonvulsant action

Question: With O=c1c(-c2ccccc2Cl)cc(-c2ccccn2)cn1-c1ccccc1 [Example 57, 3-(2-Chlorophenyl)-5-(2-pyridyl)-1-phenyl-1,2-dihydropyridin-2-one] as the compound, how does the “Anticonvulsant action” value (male mice of ddy strain) read?
Answer: significant anticonvulsant action

Question: How did the “Anticonvulsant action” value (male mice of ddy strain) turn out when O=c1c(-c2ccccc2[N+](=O)[O-])cc(-c2ccccn2)cn1-c1ccccc1 [Example 270, 3-(2-Nitrophenyl)-1-phenyl-5-(2-pyridyl)-1,2-dihydropyridin-2-one] was run?
Answer: significant anticonvulsant action

Question: How did the “Anticonvulsant action” value (male mice of ddy strain) turn out when N#Cc1ccccc1-c1cc(-c2ccccc2)cn(-c2cccnc2)c1=O [Example 47, 3-(2-Cyanophenyl)-5-phenyl-1-(3-pyridyl)-1,2-dihydropyridin-2-one] was run?
Answer: significant anticonvulsant action

Question: O=c1c(-c2ccccc2)cc(-c2ccccn2)cn1-c1ccccc1 [Example 61, 3-Phenyl-5-(2-pyridyl)-1-phenyl-1,2-dihydropyridin-2-one] was tested. Which “Anticonvulsant action” value (male mice of ddy strain) did it give?
Answer: significant anticonvulsant action

Question: Which “Anticonvulsant action” value (male mice of ddy strain) does the source give for O=c1c(-c2ccccc2Cl)cc(-c2ccccn2)cn1-c1cccnc1 [Example 128, 3-(2-Chlorophenyl)-5-(2-pyridyl)-1-(3-pyridyl)-1,2-dihydropyridin-2-one] here?
Answer: significant anticonvulsant action

Question: N#Cc1ccccc1-c1cc(-c2ccccn2)cn(-c2ccc(C(F)(F)F)cc2)c1=O [Example 108, 3-(2-Cyanophenyl)-5-(2-pyridyl)-1-(4-trifluoromethylphenyl)-1,2-dihydropyridin-2-one] was tested. Which IC50 (AMPA receptor) did it give?
Answer: 30 nM

Question: Which IC50 (AMPA receptor) does the source give for N#Cc1ccccc1-c1cc(-c2ccccn2)cn(-c2ccoc2)c1=O [Example 106, 3-(2-Cyanophenyl)-5-(2-pyridyl)-1-(3-furyl)-1,2-dihydropyridin-2-one] here?
Answer: 70 nM

Question: With N#Cc1ccccc1-c1cc(-c2ccccn2)cn(-c2cccc(CO)c2)c1=O [Example 21, 3-(2-Cyanophenyl)-5-(2-pyridyl)-1-(3-hydroxymethylphenyl)-1,2-dihydropyridin-2-one] as the compound, how does the IC50 (AMPA receptor) read?
Answer: 30 nM
